Assay results: ChEMBL document CHEMBL5696443 (Clin Cancer Res, 2016)
Active and inactive are the calls of the source. No cut-off for these calls is given here.

Key:
[1] = system: BaF3; conditions: dose 50 mg/kg; route po; time 8 day
[2] = target: Tyrosine-protein kinase ITK/TSK (Homo sapiens) (UniProt Q08881); assay: Inhibition of human ITK at 1 uM using MBP as substrate in presence of [gamma33P]-ATP by HotSpot assay relative to control
[3] = target: Death-associated protein kinase 2 (Homo sapiens) (UniProt Q9UIK4); assay: Inhibition of human DAPK2 at 1 uM using KKLNRTLSFAEPG as substrate in presence of [gamma33P]-ATP by HotSpot assay relative to control
[4] = target: Leucine-rich repeat serine/threonine-protein kinase 2 (Homo sapiens, UniProt Q5S007); assay: Inhibition of human LRRK2 using RLGRDKYKTLRQIRQ as substrate in presence of [gamma33P]-ATP by HotSpot assay
[5] = target: Protein kinase C gamma type (Homo sapiens) (UniProt P05129); assay: Inhibition of human PKCG at 1 uM using ERMRPRKRQGSVRRRV as substrate in presence of [gamma33P]-ATP by HotSpot assay relative to control
[6] = target: SRSF protein kinase 1 (Homo sapiens) (UniProt Q96SB4); assay: Inhibition of human SRPK1 at 1 uM using GRSRSRSRSR as substrate in presence of [gamma33P]-ATP by HotSpot assay relative to control
[7] = system: EML4-ALK (Homo sapiens), Q9UM73+Q9HC35 [G1269A]; conditions: BaF3, time 3-5 weeks
[8] = system: EML4-ALK (Homo sapiens), Q9UM73+Q9HC35 [F1174C]; conditions: BaF3, dose 500.0 nmol/L, time 3-5 weeks
[9] = system: EML4-ALK (Homo sapiens), Q9UM73+Q9HC35 [F1174C]; conditions: BaF3, time 3-5 weeks
[10] = target: SRSF protein kinase 2 (Homo sapiens) (UniProt P78362); assay: Inhibition of human SRPK2 at 1 uM using GRSRSRSRSR as substrate in presence of [gamma33P]-ATP by HotSpot assay relative to control
[11] = target: Serine/threonine-protein kinase Chk1 (Homo sapiens, UniProt O14757); assay: Inhibition of human CHEK1 using KKKVSRSGLYRSPSMPENLNRPR as substrate in presence of [gamma33P]-ATP by HotSpot assay
[12] = Average plasma concentration in human at 90 mg administered once a day; format: ADME; conditions: in vivo
[13] = target: Non-receptor tyrosine-protein kinase TYK2 (Homo sapiens) (UniProt P29597); assay: Inhibition of human TYK2 at 1 uM using KKSRGDYMTMQIG as substrate in presence of [gamma33P]-ATP by HotSpot assay relative to control
[14] = target: Discoidin domain-containing receptor 2 (Homo sapiens) (UniProt Q16832); assay: Inhibition of human DDR2 at 1 uM using KKSRGDYMTMQIG as substrate in presence of [gamma33P]-ATP by HotSpot assay relative to control
[15] = target: Dual specificity protein kinase CLK4 (Homo sapiens) (UniProt Q9HAZ1); assay: Inhibition of human CLK4 at 1 uM using MBP as substrate in presence of [gamma33P]-ATP by HotSpot assay relative to control
[16] = target: Serine/threonine-protein kinase BRSK1 (Homo sapiens, UniProt Q8TDC3); assay: Inhibition of human BRSK1 using KKKVSRSGLYRSPSMPENLNRPR as substrate in presence of [gamma33P]-ATP by HotSpot assay
[17] = target: Muscle, skeletal receptor tyrosine-protein kinase (Homo sapiens) (UniProt O15146); assay: Inhibition of human MUSK at 1 uM using MBP as substrate in presence of [gamma33P]-ATP by HotSpot assay relative to control
[18] = system: NCI-H2228; assay: Antitumor activity against ALK positive human NCI-H2228 cells xenografted in SCID beige mouse assessed as tumor regression at 10 to 50 mg/kg, po administered once daily for 21 days and measured 28 days after treatment; format: functional, organism-based; conditions: dose 10-50 mg/kg, time 28.0 day
[19] = target: Ephrin type-A receptor 3 (Homo sapiens) (UniProt P29320); assay: Inhibition of human EPHA3 at 1 uM using poly (Glu, Tyr)4:1 as substrate in presence of [gamma33P]-ATP by HotSpot assay relative to control
[20] = target: Myosin light chain kinase 2, skeletal/cardiac muscle (Homo sapiens) (UniProt Q9H1R3); assay: Inhibition of human MYLK2 at 1 uM using KKLNRTLSFAEPG as substrate in presence of [gamma33P]-ATP by HotSpot assay relative to control
[21] = system: KARPAS-299; assay: Antitumor activity against ALK positive human KARPAS-299 cells xenografted in SCID beige mouse assessed as tumor regression at 50 mg/kg, po administered once daily for 14 days and measured after 13 days relative to control; format: functional; conditions: time 27 day
[22] = target: Serine/threonine-protein kinase pim-1 (Homo sapiens) (UniProt P11309); assay: Inhibition of human PIM1 at 1 uM using RSRHSSYPAGT as substrate in presence of [gamma33P]-ATP by HotSpot assay relative to control
[23] = target: Cyclin-dependent kinase 2/cyclin E1 (Homo sapiens) (UniProt P24864+P24941); assay: Inhibition of human CDK2/CyclinE at 1 uM using RB protein as substrate in presence of [gamma33P]-ATP by HotSpot assay relative to control; format: protein-complex assay
[24] = target: Cyclin-dependent kinase 5/CDK5 activator 1 (Homo sapiens) (UniProt Q00535+Q15078); assay: Inhibition of human CDK5/p35 at 1 uM using RB protein as substrate in presence of [gamma33P]-ATP by HotSpot assay relative to control; format: protein-complex assay
[25] = target: Ephrin type-A receptor 8 (Homo sapiens) (UniProt P29322); assay: Inhibition of human EPHA8 at 1 uM using poly (Glu, Tyr)4:1 as substrate in presence of [gamma33P]-ATP by HotSpot assay relative to control
[26] = system: EML4-ALK (Homo sapiens), Q9UM73+Q9HC35 [UNDEFINED MUTATION]; conditions: BaF3, dose 500.0 nmol/L, time 3-5 weeks
[27] = target: Mitogen-activated protein kinase 9 (Homo sapiens) (UniProt P45984); assay: Inhibition of human JNK2a2 at 1 uM using ATF2 as substrate in presence of [gamma33P]-ATP by HotSpot assay relative to control
[28] = system: NCI-H2228; conditions: time 72 hrs
[29] = target: Cyclin-dependent kinase 1/cyclin B1 (Homo sapiens) (UniProt P06493+P14635); assay: Inhibition of human CDK1/CyclinB at 1 uM using RB protein as substrate in presence of [gamma33P]-ATP by HotSpot assay relative to control; format: protein-complex assay
[30] = system: EML4-ALK (Homo sapiens), Q9UM73+Q9HC35 [D1203N]; conditions: BaF3, dose 500.0 nmol/L, time 3-5 weeks

Sequence of EML4-ALK (Homo sapiens), Q9UM73+Q9HC35 [UNDEFINED MUTATION] (Q9HC35 whole entry, looked up, change not shown): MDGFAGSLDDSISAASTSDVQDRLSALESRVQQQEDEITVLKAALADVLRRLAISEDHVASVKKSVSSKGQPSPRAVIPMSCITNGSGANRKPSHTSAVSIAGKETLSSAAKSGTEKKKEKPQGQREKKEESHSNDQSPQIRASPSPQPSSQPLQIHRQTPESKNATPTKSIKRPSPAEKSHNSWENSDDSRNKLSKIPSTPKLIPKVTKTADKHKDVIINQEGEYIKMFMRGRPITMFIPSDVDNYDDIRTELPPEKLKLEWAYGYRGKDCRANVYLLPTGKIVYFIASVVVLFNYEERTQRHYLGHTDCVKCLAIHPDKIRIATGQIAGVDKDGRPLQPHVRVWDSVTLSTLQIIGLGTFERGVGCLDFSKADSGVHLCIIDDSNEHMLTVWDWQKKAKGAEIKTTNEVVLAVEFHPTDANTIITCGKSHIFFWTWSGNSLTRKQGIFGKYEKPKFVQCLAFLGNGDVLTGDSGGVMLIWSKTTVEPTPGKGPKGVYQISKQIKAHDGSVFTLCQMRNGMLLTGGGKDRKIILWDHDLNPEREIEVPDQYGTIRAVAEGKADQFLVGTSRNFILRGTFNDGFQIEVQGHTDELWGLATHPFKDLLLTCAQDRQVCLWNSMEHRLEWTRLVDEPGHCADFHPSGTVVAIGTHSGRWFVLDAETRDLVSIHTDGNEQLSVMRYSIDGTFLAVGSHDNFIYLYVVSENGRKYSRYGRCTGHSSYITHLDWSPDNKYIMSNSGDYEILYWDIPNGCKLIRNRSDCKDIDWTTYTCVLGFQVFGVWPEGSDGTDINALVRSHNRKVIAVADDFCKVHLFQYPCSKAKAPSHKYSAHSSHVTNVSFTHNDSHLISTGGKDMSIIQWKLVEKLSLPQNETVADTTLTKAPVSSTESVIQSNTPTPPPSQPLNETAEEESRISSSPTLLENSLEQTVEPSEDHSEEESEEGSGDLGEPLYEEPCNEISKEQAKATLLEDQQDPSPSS
Sequence of EML4-ALK (Homo sapiens), Q9UM73+Q9HC35 [UNDEFINED MUTATION] (Q9UM73 whole entry, looked up, change not shown): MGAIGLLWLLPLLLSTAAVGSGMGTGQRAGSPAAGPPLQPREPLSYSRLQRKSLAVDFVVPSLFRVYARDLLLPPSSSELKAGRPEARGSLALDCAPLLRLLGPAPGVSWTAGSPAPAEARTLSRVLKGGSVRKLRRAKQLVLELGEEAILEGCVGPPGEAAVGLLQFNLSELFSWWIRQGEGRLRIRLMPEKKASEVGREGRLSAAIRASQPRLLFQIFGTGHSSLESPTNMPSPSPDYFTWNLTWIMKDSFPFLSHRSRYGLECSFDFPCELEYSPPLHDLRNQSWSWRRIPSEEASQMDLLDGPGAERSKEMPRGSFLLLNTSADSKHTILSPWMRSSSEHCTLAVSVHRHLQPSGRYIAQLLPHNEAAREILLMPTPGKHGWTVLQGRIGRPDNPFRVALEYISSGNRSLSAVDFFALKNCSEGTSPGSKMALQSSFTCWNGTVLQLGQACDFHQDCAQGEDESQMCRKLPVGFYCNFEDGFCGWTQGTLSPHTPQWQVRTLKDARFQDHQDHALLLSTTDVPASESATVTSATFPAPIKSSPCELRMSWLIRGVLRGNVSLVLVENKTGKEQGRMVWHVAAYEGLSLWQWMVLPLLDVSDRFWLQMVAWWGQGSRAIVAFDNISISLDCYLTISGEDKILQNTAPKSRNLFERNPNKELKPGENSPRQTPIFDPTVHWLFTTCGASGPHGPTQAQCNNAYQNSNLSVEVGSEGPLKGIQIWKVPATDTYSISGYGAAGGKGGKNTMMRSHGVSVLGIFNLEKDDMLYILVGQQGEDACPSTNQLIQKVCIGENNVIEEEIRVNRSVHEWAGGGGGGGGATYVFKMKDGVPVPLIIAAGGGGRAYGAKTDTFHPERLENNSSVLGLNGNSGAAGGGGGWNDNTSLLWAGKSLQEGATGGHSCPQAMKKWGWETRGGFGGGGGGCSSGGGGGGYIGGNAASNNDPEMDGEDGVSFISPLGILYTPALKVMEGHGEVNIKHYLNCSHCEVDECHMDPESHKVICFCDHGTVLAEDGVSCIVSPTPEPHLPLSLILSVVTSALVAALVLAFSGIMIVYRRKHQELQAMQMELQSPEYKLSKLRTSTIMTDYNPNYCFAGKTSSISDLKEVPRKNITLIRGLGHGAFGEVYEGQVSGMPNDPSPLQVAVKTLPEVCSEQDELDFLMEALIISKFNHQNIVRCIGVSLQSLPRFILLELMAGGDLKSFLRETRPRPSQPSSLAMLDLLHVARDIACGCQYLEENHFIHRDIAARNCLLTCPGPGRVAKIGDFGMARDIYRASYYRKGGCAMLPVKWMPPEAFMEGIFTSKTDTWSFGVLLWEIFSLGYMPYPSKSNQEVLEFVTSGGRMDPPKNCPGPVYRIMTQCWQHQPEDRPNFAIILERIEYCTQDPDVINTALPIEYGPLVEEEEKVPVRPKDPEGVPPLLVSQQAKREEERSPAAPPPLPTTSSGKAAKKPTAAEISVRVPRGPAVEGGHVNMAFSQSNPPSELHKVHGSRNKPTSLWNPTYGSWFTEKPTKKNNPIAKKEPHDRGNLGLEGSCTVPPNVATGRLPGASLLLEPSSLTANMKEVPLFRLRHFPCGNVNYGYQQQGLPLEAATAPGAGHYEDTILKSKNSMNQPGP
Sequence of Mitogen-activated protein kinase 9 (Homo sapiens) (P45984 whole entry, looked up): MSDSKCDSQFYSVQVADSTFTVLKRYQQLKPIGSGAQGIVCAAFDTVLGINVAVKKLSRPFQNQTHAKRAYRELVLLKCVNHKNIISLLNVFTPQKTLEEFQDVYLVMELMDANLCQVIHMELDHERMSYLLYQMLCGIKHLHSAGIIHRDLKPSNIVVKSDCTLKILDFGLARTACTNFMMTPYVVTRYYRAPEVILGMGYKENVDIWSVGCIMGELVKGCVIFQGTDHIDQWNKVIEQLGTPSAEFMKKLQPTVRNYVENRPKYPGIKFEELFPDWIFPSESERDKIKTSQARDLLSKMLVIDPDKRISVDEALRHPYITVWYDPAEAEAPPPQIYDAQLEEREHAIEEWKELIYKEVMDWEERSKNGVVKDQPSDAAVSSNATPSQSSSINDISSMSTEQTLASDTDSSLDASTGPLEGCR
Sequence of Myosin light chain kinase 2, skeletal/cardiac muscle (Homo sapiens) (Q9H1R3 whole entry): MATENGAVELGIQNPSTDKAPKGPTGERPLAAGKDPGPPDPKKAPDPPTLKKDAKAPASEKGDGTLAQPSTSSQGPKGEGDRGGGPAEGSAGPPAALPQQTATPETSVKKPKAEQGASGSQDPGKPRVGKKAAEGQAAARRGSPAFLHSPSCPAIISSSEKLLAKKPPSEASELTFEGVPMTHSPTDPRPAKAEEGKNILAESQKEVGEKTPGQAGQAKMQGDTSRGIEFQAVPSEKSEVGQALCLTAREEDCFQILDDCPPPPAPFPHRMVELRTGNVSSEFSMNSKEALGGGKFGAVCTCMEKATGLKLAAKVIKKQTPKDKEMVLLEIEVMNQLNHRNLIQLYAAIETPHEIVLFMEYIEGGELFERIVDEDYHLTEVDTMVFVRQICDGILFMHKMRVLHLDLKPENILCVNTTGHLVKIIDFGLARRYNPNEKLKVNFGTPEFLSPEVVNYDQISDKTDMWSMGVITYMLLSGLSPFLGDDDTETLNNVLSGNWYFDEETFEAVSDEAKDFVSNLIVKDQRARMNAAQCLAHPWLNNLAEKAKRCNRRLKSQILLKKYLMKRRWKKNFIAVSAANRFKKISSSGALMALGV
Sequence of SRSF protein kinase 2 (Homo sapiens) (P78362 whole entry, looked up): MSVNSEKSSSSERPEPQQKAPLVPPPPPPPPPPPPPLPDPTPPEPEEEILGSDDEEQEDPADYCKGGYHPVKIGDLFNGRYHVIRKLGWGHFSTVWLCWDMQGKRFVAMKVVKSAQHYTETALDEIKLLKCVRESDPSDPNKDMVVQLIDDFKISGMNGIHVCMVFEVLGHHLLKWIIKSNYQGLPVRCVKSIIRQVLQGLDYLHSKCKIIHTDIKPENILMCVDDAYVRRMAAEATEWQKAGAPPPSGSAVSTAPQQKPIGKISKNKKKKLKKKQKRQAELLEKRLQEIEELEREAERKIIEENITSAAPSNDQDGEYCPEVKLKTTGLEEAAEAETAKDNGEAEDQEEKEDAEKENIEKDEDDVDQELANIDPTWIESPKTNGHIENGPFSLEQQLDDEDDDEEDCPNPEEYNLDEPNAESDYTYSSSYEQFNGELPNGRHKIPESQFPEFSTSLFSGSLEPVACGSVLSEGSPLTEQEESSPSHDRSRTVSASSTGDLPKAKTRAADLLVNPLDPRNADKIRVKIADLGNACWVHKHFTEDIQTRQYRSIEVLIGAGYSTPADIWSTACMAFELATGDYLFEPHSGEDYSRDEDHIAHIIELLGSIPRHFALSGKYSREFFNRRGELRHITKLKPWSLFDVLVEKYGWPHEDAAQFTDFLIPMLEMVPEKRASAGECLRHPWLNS
Sequence of Death-associated protein kinase 2 (Homo sapiens) (Q9UIK4 whole entry, looked up): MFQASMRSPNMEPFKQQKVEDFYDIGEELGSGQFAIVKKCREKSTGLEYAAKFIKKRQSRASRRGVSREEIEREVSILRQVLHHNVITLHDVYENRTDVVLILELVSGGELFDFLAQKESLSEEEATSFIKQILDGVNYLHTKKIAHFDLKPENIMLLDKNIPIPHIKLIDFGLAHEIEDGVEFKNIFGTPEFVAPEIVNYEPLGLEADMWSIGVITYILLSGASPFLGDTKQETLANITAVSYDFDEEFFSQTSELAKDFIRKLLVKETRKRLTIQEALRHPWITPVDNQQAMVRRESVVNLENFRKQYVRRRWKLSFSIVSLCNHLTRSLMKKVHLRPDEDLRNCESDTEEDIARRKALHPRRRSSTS
Sequence of Serine/threonine-protein kinase pim-1 (Homo sapiens) (P11309 whole entry, looked up): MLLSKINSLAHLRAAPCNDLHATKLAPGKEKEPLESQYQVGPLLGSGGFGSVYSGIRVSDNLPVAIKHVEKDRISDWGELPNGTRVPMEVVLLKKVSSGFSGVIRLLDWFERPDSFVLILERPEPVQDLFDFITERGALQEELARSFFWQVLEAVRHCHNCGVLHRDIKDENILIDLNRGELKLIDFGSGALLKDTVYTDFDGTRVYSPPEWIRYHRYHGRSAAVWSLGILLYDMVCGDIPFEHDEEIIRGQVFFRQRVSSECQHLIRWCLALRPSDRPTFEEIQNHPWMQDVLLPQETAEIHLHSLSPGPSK

SMILES: COc1cc(N2CCC(N3CCN(C)CC3)CC2)ccc1Nc1ncc(Cl)c(Nc2ccccc2P(C)(C)=O)n1 [BRIGATINIB]
- TGI [1]: 88%
- inhibition [2]: < 90%
- inhibition [3]: < 90%
- IC50 [4]: 0.051 µM
- inhibition [5]: < 90%
- inhibition [6]: < 90%
- IC90 [7]: 0.022 µM
- inhibition [8]: Active
- IC90 [9]: 0.16 µM
- inhibition [10]: < 90%
- IC50 [11]: 0.03 µM
- Cave [12]: 582 nM
- inhibition [13]: < 90%
- inhibition [14]: < 90%
- inhibition [15]: < 90%
- IC50 [16]: 0.338 µM
- inhibition [17]: < 90%
- Activity [18]: Active
- inhibition [19]: < 90%
- inhibition [20]: < 90%
- Activity [21]: ~100%
- inhibition [22]: < 90%
- inhibition [23]: < 90%
- inhibition [24]: < 90%
- inhibition [25]: < 90%
- inhibition [26]: Active
- inhibition [27]: < 90%
- GI50 [28]: 0.01 µM
- inhibition [29]: < 90%
- inhibition [30]: Active
